According to patent EP0418099B1, “Process of preparation of 10, 11-Methylenedioxy-20 (RS) camptothecin and 10, 11-methylenedioxy-20 (S) - camptothecin analog” (RESEARCH TRIANGLE INSTITUTE, priority 1989, dated 1991):
≈ marks a conversion by molar mass, not a printed value. Where a name gives a salt, the structure may show the parent alone.

Experiments:
human colorectal tumors = assay: Human colon tumor histioculture, inhibition of cell proliferation; type: cell-based; conditions: concentration inhibiting by 50% the incorporation of [H]thymidine into DNA, tumors exposed to compounds for 24 hours, then thymidine for 3 days
Excerpt: As used herein, the term "cancer" is synonymous with the terms "malignant tumor" and more generally "tumor". […] See H.L. Davis, Chemotherapy of Large Bowel Cancer, Cancer (Phila.) 50: 2638-2646 (1982); J.R. Neefe and P.S. Schein, Chapter 43: The Management of Disseminated Large-Bowel Cancer in Principals of Cancer Treatment, page 402, ed. S.K. Carter, E. Glatstein and R.B. Livingston, McGraw-Hill Co., 1982; K. Mekhail-Ishak, Cancer Research, 49: 4866-4869 (1989) and P.J. Ferguson and Y.C. Cheng, Cancer Research, 49: 1148-1153 (1989).
Inhibition of tumor cell proliferation was performed in vitro on human colorectal tumors obtained from surgery or biopsy, as described by Vescio et al (Proc. Nat'l. Acad. Sci. USA 84:5029-5033, 1987) with the following modifications: Tumors were cultured 1 day prior to drug addition; tumors were exposed to compounds for 24 hours, washed, and then exposed to ^3[H]thymidine for 3 days.

9PS = assay: In vitro cytotoxicity test 9PS; type: cell-based; conditions: 9PS test, compared with camptothecin
Excerpt: (§1) 10,11-MDO-20(S)-CPT is also very potent in the L-1210 leukemia in vivo life prolongation assay. The synthesis of […] is known and described in Wani et al, J. Med. Chem., 29 (11), 2358-2363 (1986) and in U.S. 4,894,456.

L-1210 leukemia = L-1210 leukemia in vivo life prolongation assay; set-up: species or system mice
Excerpt: as §1

9KB = assay: In vitro cytotoxicity test 9KB; type: cell-based; conditions: 9KB test, compared with camptothecin
Excerpt: as §1

topoisomerase I = topoisomerase I (Bos taurus, UniProt A0AAA9TV68); conditions: relative to camptothecin; cited from earlier work
topoisomerase I, sequence (A0AAA9TV68 entry or part of it): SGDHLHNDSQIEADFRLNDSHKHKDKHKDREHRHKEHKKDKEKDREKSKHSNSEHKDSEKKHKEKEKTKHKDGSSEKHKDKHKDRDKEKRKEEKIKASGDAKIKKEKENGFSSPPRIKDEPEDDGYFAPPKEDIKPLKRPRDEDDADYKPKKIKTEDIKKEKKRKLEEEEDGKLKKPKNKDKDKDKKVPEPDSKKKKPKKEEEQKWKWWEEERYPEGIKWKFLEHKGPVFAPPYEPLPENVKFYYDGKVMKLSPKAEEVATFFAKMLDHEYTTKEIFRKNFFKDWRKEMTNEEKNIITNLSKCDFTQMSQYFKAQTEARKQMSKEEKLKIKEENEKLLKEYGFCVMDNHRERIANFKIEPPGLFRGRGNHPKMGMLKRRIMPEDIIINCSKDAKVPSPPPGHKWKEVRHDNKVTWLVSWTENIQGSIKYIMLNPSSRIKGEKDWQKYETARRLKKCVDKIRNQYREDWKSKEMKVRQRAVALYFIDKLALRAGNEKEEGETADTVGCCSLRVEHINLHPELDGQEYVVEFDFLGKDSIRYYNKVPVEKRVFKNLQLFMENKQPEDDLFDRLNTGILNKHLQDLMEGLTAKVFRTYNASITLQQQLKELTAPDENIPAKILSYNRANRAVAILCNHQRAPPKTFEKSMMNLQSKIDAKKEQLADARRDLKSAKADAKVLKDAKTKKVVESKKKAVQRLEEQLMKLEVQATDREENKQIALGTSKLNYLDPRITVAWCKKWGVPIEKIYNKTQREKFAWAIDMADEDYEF

[1] = Wani et al., J. Med. Chem.; cited from earlier work

CCC1(O)C(=O)OCc2c1cc1n(c2=O)Cc2cc3c(N)c4c(cc3nc2-1)OCO4 (racemic) [Compound 4, 9-AMINO-10,11-MDO-20(RS)-CPT]
IC50 (human colorectal tumors): ~5 ng/mL (≈ 0.0123 µM)

CCC(O)(C(=O)O)c1cc2n(c(=O)c1CO)Cc1cc3cc4c(cc3nc1-2)OCO4 (racemic) [Compound 8, 10,11-MDO-20(RS)-CPT, Na^+ SALT]
IC50 (human colorectal tumors): ~10 ng/mL

CC[C@@]1(O)C(=O)OCc2c1cc1n(c2=O)Cc2cc3cc4c(cc3nc2-1)OCO4 [Compound 2, 10,11-MDO-20(S)-CPT]
ED50 (9PS): equal to or more potent than camptothecin itself
life prolongation (L-1210 leukemia): very potent
ED50 (9KB): equal to or more potent than camptothecin itself

CCC1(O)C(=O)OCc2c1cc1n(c2=O)Cc2cc3cc4c(cc3nc2-1)OCO4 (racemic) [Compound 3, 10,11-MDO-20(RS)-CPT]
IC50 (human colorectal tumors): ~5 ng/mL (≈ 0.0127 µM)
potency in the inhibition of topoisomerase I (topoisomerase I): three to five times the potency of camptothecin

CCC1(O)C(=O)OCc2c1cc1n(c2=O)Cc2cc3cc(OC)c(OC)cc3nc2-1 (racemic) [10,11-dimethoxy-20(RS)-CPT]
activity [1]: totally inactive
